From patent publication US20150004134A1, “TREATMENT OF CANCER WITH HETEROCYCLIC INHIBITORS OF GLUTAMINASE” (Calithera Biosciences, Inc., priority 2012, published 2015) come the findings set out here.

One data set relates to P493-6 (myc "on") cells. Nature of the data set: Cell Proliferation Assay. The format is cell-based. Conditions: P493-6, 72 h, read-out: Cell prolif P493 72 h IC50, P493 cells, 72 h. Summed up:
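P493-6 cells with myc on, 10,000 per well in RPMI/10% FBS, exposed to serially diluted compound (0.5% DMSO final) for 72 h at 37 °C, 5% CO2. Antiproliferative effect read by Cell Titer Glo luminescence or Viacount FACS viability count.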

The target of data set [1] is T1, recombinant form of Glutaminase 1 (GAC) (Homo sapiens, UniProt O94925).
T1 sequence (O94925 137-598 isoform O94925-3 limits assumed): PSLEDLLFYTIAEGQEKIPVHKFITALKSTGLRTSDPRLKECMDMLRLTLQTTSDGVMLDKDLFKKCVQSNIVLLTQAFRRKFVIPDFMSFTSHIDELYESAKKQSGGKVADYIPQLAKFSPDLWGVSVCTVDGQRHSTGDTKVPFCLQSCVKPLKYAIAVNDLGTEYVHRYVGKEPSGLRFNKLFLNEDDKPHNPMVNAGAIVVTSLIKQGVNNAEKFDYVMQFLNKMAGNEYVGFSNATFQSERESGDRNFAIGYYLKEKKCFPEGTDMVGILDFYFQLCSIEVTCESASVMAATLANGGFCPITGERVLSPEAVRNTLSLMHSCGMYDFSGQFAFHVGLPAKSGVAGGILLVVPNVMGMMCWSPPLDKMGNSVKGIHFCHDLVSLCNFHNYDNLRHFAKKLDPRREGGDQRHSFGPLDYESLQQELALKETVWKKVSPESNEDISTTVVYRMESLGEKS
Nature of the data set: Recombinant Enzyme Assay - Time Dependence (60 min preincubation). It counts as biochemical. Conditions: read-out: GAC Delta N2 IC50 60 min preinc. The procedure, abridged: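 Enzyme and compound preincubated 60 min at 20° C; reaction started with substrate buffer (50 mM Tris-HCl pH 8.0, 150 mM K2HPO4, 1 mM DTT, 20 mM L-glutamine, 2 mM NAD^+). NADH formation followed at 340 nm in kinetic mode for 15 min at 20° C; slopes (mAU/min) compared with DMSO and control-compound wells.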

For data set [2], the target named is T1, recombinant form of Glutaminase 1 (GAC). Nature of the data set: Recombinant Enzyme Assay (no preincubation).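 Note: GDH-coupled GAC activity read as absorbance at 340 nm in kinetic mode over 15 min at 20 °C, slopes compared with a DMSO-only control, lower slope means inhibition.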 The format is biochemical. As to conditions: read-out: GAC Delta N2 IC50 no preinc.
Procedure: Compounds were assessed for their ability to inhibit the enzymatic activity of a recombinant form of Glutaminase 1 (GAC) using a biochemical assay that couples the production of glutamate (liberated by GAC) to glutamate dehydrogenase (GDH) and measuring the change in absorbance for the reduction of NAD^+ to NADH. […] Enzymatic reaction was started with the addition of 50 μL of enzyme solution (50 mM Tris-HCl pH 8.0, 0.2 mM EDTA, 150 mM K2HPO4, 0.1 mg/ml BSA, 1 mM DTT, 10 ppm antifoam, 4 units/ml GDH, 4 mM adenosine diphosphate, and 4 nM GAC) and read in a Molecular Devices M5 plate reader at 20° C. The plate reader was configured to read absorbance (λ=340 nm) in kinetic mode for 15 minutes. Data was recorded as milli-absorbance units per minute and slopes were compared to a control compound and a DMSO-only control on the same plate. Compounds with slopes less than the DMSO control were considered inhibitors and plate variability was assessed using the control compound.
The next data set deals with Caco-2 cell monolayers. Nature of the data set: Caco-2 Permeability Assay. The format is in vitro ADME. As to conditions: for Permeability Classification: absorption potential. The source says:
Caco-2 cells are commonly used in a confluent monolayer on a cell culture insert filter. When cultured in this format and under specific conditions, the cells become differentiated and polarized such that their phenotype, morphologically and functionally resembles the enterocytes lining the small intestine. The cell monolayer provides a physical and biochemical barrier to the passage of small molecules, and is widely used across the pharmaceutical industry as an in vitro model of the human small intestinal mucosa to predict the absorption of orally administered drugs (Hidalgo et al., Gastroenterology, 1989; Artursson, J. Pharm. Sci., 1990). The correlation between the in vitro apparent permeability (P ? app) across Caco-2 monolayers and the in vivo absorption is well established (Artursson et al., Biochem. Biophys. Res. Comm., 1991).
The present assay was used to determine the bidirectional permeability of the compounds of the invention through Caco-2 cell monolayers. Caco-2 cells were grown in confluent monolayers where the media of both the apical (A) and basolateral (B) sides were at pH 7.4. Compounds were dosed at 1 μM in the presence of 200 μM Lucifer Yellow, on the apical side (A→B) or the basolateral side (B→A) for assessment, in duplicate.
The absorption potential of compounds were classified as either Low (P-app <1×10^−6 CM/S) or High (P-app >1×10^−6 CM/S).
(Caco-2 cells form a polarised layer with tight junctions and transporters.)

The target in data set [3] is T2, recombinant form of glutaminase (GAC Delta N2) (Homo sapiens, UniProt O94925).
T2 sequence (O94925 137-598 isoform O94925-3 limits assumed): T1 sequence (O94925 137-598 isoform O94925-3 limits assumed)
Nature of the data set: Modified Recombinant Enzyme Assay - Time Dependence. Conditions: 60 min preincubation. The format is biochemical.
Procedure: Compounds were assessed for their ability to inhibit the enzymatic activity of a recombinant form of glutaminase using a biochemical assay that couples the production of Glu (liberated by glutaminase) to GDH and measures the increase in fluorescence due to the reduction of NADP+ to NADPH.
3x-enzyme-containing solution was made by diluting recombinant glutaminase and GDH from Proteus species (Sigma Aldrich no. G4387) into glutaminase buffer to create a 6 nM glutaminase plus 18 units/mL GDH solution. […] When time-dependent effects of compound inhibition were tested, enzyme-containing solution was treated with inhibitor-containing solution for the indicated time prior to addition of substrate-containing solution.
IC50 Determination: The initial velocities of each progress curve were calculated using a straight line equation (Y=Yintercept+(slope)*X). Initial velocity values were plotted against compound concentration and fit to a four parameter dose response equation (% activity=Bottom+(Top−Bottom)/(1+10̂((LogIC50−X)*HillSlope))) to calculate an IC50 value.

As to `O=C(Cc1ccccc1)Nc1ccc(CCCCc2nnc(NC(=O)Cc3ccccc3)s2)nn1` [Compound 295], the IC50 in the data set on P493-6 (myc "on") cells turned out to be 0.039 µM; in data set [1] it was 0.01 µM; in data set [2], 0.057 µM. In the data set on Caco-2 cell monolayers, the “Significant Efflux” value was “Yes (efflux ratios being significant when greater than or equal to 3 when the Papp (B→A) was greater than or equal to 1×10^−6 cm/s)”. For the same molecule, the “Permeability Classification” value in the data set on Caco-2 cell monolayers was “High (High (P-app >1×10^−6 CM/S))”.
`O=C(Cc1ccccc1)Nc1ccc(CCCCc2nnc(NC(=O)C(O)c3cccc(Cl)c3)s2)nn1` (stereo not drawn) [Compound 318]: the IC50 in the data set with P493-6 (myc "on") cells stood at 0.017 µM; in data set [1] it was 0.006 µM; in data set [2] it was 0.18 µM. Also, the “Significant Efflux” value with Caco-2 cell monolayers is listed as “Yes (efflux ratios being significant when greater than or equal to 3 when the Papp (B→A) was greater than or equal to 1×10^−6 cm/s)”. In addition, the “Permeability Classification” value with Caco-2 cell monolayers is given as “High (High (P-app >1×10^−6 CM/S))”.
With `CC(C)(C)OC(=O)NCc1cccc(CC(=O)Nc2nnc(CCCCc3ccc(NC(=O)Cc4ccccc4)nn3)s2)c1` [Compound 339], in the data set on P493-6 (myc "on") cells, the IC50 stood at 0.009 µM. In the data set with Caco-2 cell monolayers, the “Significant Efflux” value is recorded as “Yes (efflux ratios being significant when greater than or equal to 3 when the Papp (B→A) was greater than or equal to 1×10^−6 cm/s)” and the “Permeability Classification” value was “High (High (P-app >1×10^−6 CM/S))”.
On the same counts, the results for `O=C(Cc1ccccc1)Nc1ccc(CCCCc2nnc(NC(=O)Cc3ccccn3)s2)nn1` [Compound 354] are 0.047 µM, “Yes (efflux ratios being significant when greater than or equal to 3 when the Papp (B→A) was greater than or equal to 1×10^−6 cm/s)” and “High (High (P-app >1×10^−6 CM/S))”.
With `CC(C)(C)OC(=O)NCc1cccc(CC(=O)Nc2nnc(CCCCc3nnc(NC(=O)Cc4ccccc4)s3)s2)c1` [Compound 375], the IC50 was 0.041 µM with P493-6 (myc "on") cells, 0.005 µM in data set [1] and 0.38 µM in data set [2].
For `CCOC(=O)NCc1cccc(CC(=O)Nc2nnc(CCCCc3ccc(NC(=O)Cc4ccccc4)nn3)s2)c1` [Compound 382], the IC50 in the data set with P493-6 (myc "on") cells came out at 0.007 µM; in data set [1], 0.003 µM; in data set [2] it was 0.099 µM.
Take `CCOC(=O)NCc1cccc(CC(=O)Nc2ccc(CCCCc3nnc(NC(=O)Cc4ccccc4)s3)nn2)c1` [Compound 384]: the IC50 in the data set with P493-6 (myc "on") cells was found to be 0.005 µM; in data set [1], 0.003 µM; in data set [2], 0.081 µM.
On to `CC(C(=O)Nc1ccc(CCCCc2nnc(NC(=O)Cc3cccc(CNC(=O)OC(C)(C)C)c3)s2)nn1)c1ccccc1` (stereo not drawn) [Compound 436], for which, in the data set on Caco-2 cell monolayers, the “Significant Efflux” value was “Yes (efflux ratios being significant when greater than or equal to 3 when the Papp (B→A) was greater than or equal to 1×10^−6 cm/s)” and the “Permeability Classification” value is given as “High (High (P-app >1×10^−6 CM/S))”.
On to `O=C(Cc1cccc(OC(F)(F)F)c1)Nc1ccc(CCCCc2nnc(NC(=O)C(O)c3cccc(Cl)c3)s2)nn1` (stereo not drawn) [Compound 447], for which the IC50 in data set [1] was 0.005 µM. Moreover, in the data set on Caco-2 cell monolayers, the “Significant Efflux” value is “Yes (efflux ratios being significant when greater than or equal to 3 when the Papp (B→A) was greater than or equal to 1×10^−6 cm/s)” and the “Permeability Classification” value is “High (High (P-app >1×10^−6 CM/S))”.
With `O=C(Cc1ccccc1Cl)Nc1ccc(CCCCc2nnc(NC(=O)Cc3ccccc3F)s2)nn1` [Compound 533], in the data set with Caco-2 cell monolayers, the “Significant Efflux” value is listed as “Yes (efflux ratios being significant when greater than or equal to 3 when the Papp (B→A) was greater than or equal to 1×10^−6 cm/s)” and the “Permeability Classification” value is “High (High (P-app >1×10^−6 CM/S))”.
`O=C(Cc1cccc(OC(F)(F)F)c1)Nc1ccc(CCCCc2nnc(NC(=O)Cc3ccccc3)s2)nn1` [Compound 585]: in data set [1], the IC50 was found to be 0.006 µM. In addition, in the data set on Caco-2 cell monolayers, the “Significant Efflux” value is “Yes (efflux ratios being significant when greater than or equal to 3 when the Papp (B→A) was greater than or equal to 1×10^−6 cm/s)” and the “Permeability Classification” value is “High (High (P-app >1×10^−6 CM/S))”.
As for `CC(C(=O)Nc1nnc(CCCCc2ccc(NC(=O)Cc3ccccc3)nn2)s1)c1ccccc1` (stereo not drawn) [Compound 616], the IC50 in data set [1] stood at 0.008 µM. For the same molecule, in the data set on Caco-2 cell monolayers, the “Significant Efflux” value is on record as “Yes (efflux ratios being significant when greater than or equal to 3 when the Papp (B→A) was greater than or equal to 1×10^−6 cm/s)” and the “Permeability Classification” value is “High (High (P-app >1×10^−6 CM/S))”.
As to `O=C(Cc1cccc(OC(F)(F)F)c1)Nc1ccc(CCCCc2nnc(NC(=O)Cc3cccc(OC(F)(F)F)c3)s2)nn1` [Compound 660], the IC50 in data set [1] turned out to be 0.025 µM. In addition, in the data set on Caco-2 cell monolayers, the “Significant Efflux” value is recorded as “Yes (efflux ratios being significant when greater than or equal to 3 when the Papp (B→A) was greater than or equal to 1×10^−6 cm/s)” and the “Permeability Classification” value is “Low (Low (P-app <1×10^−6 CM/S))”.
For `O=C(Cc1cccc(OC(F)(F)F)c1)Nc1ccc(CCCCc2nnc(NC(=O)Cc3ccccn3)s2)nn1` [Compound 670], in the data set on Caco-2 cell monolayers, the “Significant Efflux” value is reported as “Yes (efflux ratios being significant when greater than or equal to 3 when the Papp (B→A) was greater than or equal to 1×10^−6 cm/s)” and the “Permeability Classification” value was “High (High (P-app >1×10^−6 CM/S))”.
In the case of `O=C(Cc1cccc(OC(F)(F)F)c1)Nc1ccc(CCCCc2nnc(NC(=O)Cc3cccc(F)c3)s2)nn1` [Compound 679], in the data set with Caco-2 cell monolayers, the “Significant Efflux” value is “No” and the “Permeability Classification” value is listed as “High (High (P-app >1×10^−6 CM/S))”.
Consider `O=C(Cc1cccc(OC(F)(F)F)c1)Nc1ccc(CCCCc2nnc(NC(=O)[C@@H](O)c3ccccc3)s2)nn1` [Compound 703], for which, in the data set on Caco-2 cell monolayers, the “Significant Efflux” value is reported as “Yes (efflux ratios being significant when greater than or equal to 3 when the Papp (B→A) was greater than or equal to 1×10^−6 cm/s)” and the “Permeability Classification” value is on record as “High (High (P-app >1×10^−6 CM/S))”.
In the case of `O=C(Cc1cccc(OC(F)(F)F)c1)Nc1ccc(CCCCc2nnc(NC(=O)[C@H](O)c3ccccc3)s2)nn1` [Compound 705], in the data set on Caco-2 cell monolayers, the “Significant Efflux” value is on record as “Yes (efflux ratios being significant when greater than or equal to 3 when the Papp (B→A) was greater than or equal to 1×10^−6 cm/s)” and the “Permeability Classification” value was “High (High (P-app >1×10^−6 CM/S))”.
As for `O=C(Cc1ccccn1)Nc1nnc(CCCCc2ccc(NC(=O)C(O)c3ccccc3)nn2)s1` (stereo not drawn) [Compound 715], the IC50 in data set [3] was 0.19 µM.
On the same count and under the same terms, next, `COc1ccc(OC(F)(F)F)cc1CC(=O)Nc1ccc(CCCCc2nnc(NC(=O)Cc3ccccn3)s2)nn1` [Compound 717]: 0.034 µM; `O=C(Cc1cc(OC(F)(F)F)ccc1O)Nc1ccc(CCCCc2nnc(NC(=O)Cc3ccccn3)s2)nn1` [Compound 718]: 0.026 µM.
With `O=C(Cc1ccc(F)c(OC(F)(F)F)c1)Nc1ccc(CCCCc2nnc(NC(=O)Cc3ccccn3)s2)nn1` [Compound 719], in data set [3], the IC50 is 0.033 µM.
Same read-out and setting: next, `O=C(Cc1cc(OC(F)(F)F)ccc1F)Nc1ccc(CCCCc2nnc(NC(=O)Cc3ccccn3)s2)nn1` [Compound 720]: 0.02 µM.
In the case of `O=C(Cc1ccc(Cl)c(OC(F)(F)F)c1)Nc1ccc(CCCCc2nnc(NC(=O)Cc3ccccn3)s2)nn1` [Compound 721], in data set [3], the IC50 came out at 0.016 µM.
As to `COc1ccc(CC(=O)Nc2ccc(CCCCc3nnc(NC(=O)Cc4ccccn4)s3)nn2)cc1OC(F)(F)F` [Compound 722], the IC50 in data set [3] amounted to 0.024 µM.
Regarding `O=C(Cc1ccc(O)c(OC(F)(F)F)c1)Nc1ccc(CCCCc2nnc(NC(=O)Cc3ccccn3)s2)nn1` [Compound 723], the IC50 in data set [3] turned out to be 0.042 µM.
For the molecule `CC(C)(C)OC(=O)Nc1cccc(CC(=O)Nc2nnc(CCCCc3ccc(NC(=O)Cc4cccc(OC(F)(F)F)c4)nn3)s2)n1` [Compound 724], the IC50 in data set [3] stood at 0.14 µM.
For `Nc1cccc(CC(=O)Nc2nnc(CCCCc3ccc(NC(=O)Cc4cccc(OC(F)(F)F)c4)nn3)s2)n1` [Compound 725], in data set [3], the IC50 stood at 0.05 µM.
Turning to `Cc1cccc(CC(=O)Nc2nnc(CCCCc3ccc(NC(=O)Cc4cccc(OC(F)(F)F)c4)nn3)s2)n1` [Compound 728], the IC50 in data set [3] was found to be 0.012 µM.
